Several values for one entry are separate records, joined by “and”; a condition that tells them apart may be missing. Equal entries are not always repeated. Primed or numbered codes have the meaning given here. Ends that are not written are not given here. Peptide text beside a SMILES is read from it. * marks the point of attachment. {P353} = cell-penetrating peptide 353 (Glu-Oct6) attached at PNA N-terminus; {Lys-FITC} = C-terminal lysine carrying fluorescein (FITC); 5FAM = O=C1OC2(c3ccc(O)cc3Oc3cc(O)ccc32)c2ccc(C(=O)*)cc21; FITC′ = not defined here
Tests used:
Assay type in all cases: cell-based
[1] = test system: DU-145 cells; experiment: Cell death determined by staining with 7-AAD; settings: concentrations higher than 300 nM
Experimental: (§1) In order to determine if uptake of peptide 353 was receptor-mediated or receptor-specific in any way, Glu residues were substituted by Phe residues (peptide 361) or Asn residues (peptide 362). The resulting peptides were incubated at 0 to 3000 nM with DU-145 cells for 1 hr. Cells were then harvested and processed for analysis by flow cytometry. […] At 3000 nM, peptides 361 and 362 induced cell death in more than 70% of the cells (determined by staining with 7-AAD); in the case of peptide 361, over 95% of DU-145 cells were positive for 7-AAD; therefore only geometric MFI for concentrations up to 1000 nM are shown in the figure. […] The higher MFI observed for peptide 365 is likely due to the hydrophobicity of both the Phe residues and the dansyl fluorochrome. It was concluded from these experiments that peptide 353 bound to a cell-surface receptor through the glutamate residues.
(§2) Uptake and Fluorescence Quantification Studies: Peptides were added to subconfluent cultures of cells at times, temperatures, and concentrations indicated in experiments. Concentrations ranging from 0 to 3000 nM were assayed. Cells were analyzed in the presence of […] 7-AAD (eBioscience, San Digeo Calif.) to gate on live events. Fluorescence was quantified, after cells were harvested, using a FACScan flow cytometer. At least 10,000 events were acquired using CellQuest Pro software and an Apple Macintosh G4 dual coprocessor computer running OS X 10.3.9. Fluorescence detectors on the instrument were standardized prior to each acquisition run, so that fluorescence intensities from different days could be compared. Because the FACScan employs logarithmic amplifiers on the fluorescence detectors, the more accurate parameter with which to compare fluorescence intensities for different samples is the geometric mean fluorescence intensity (geometric MFI). In some studies, fixed cells (4% paraformaldehyde/DPBS) were analyzed on an Amnis ImageStream 200 imaging cytometer using IDEAS 3.0 software.

[2] = Cell death determined by staining with 7-AAD; settings: human, DU-145 cells; 3000 nM, 1 hr (FIG. 1C)
Experimental: as §1, §2

[3] = test system: DU-145 cells; experiment: Peptide uptake by live cells, flow cytometry (geometric MFI); settings: for geometric MFI compared among the peptides (FIG. 1A): 500 nM peptides, 4 hrs incubation; for effect of NaN3 on uptake: 0.1 or 1% NaN3, 300 nM peptide; for average geometric MFI: 300 nM peptides, 4° C., 4 hours (FIG. 2); for uptake of carboxydansyl peptide on coincubation with peptide 353: 300 nM each, 1 hr (FIG. 1D)
Experimental: (§3) Uptake of peptides by live cells was compared by flow cytometry, using the exclusion dye 7-amino actinomycin D (7-AAD) to exclude dead cells from analyses.
(§4) Cells: DU-145 and LNCaP cells were the gift of Dr. James Turkson (University of South Florida, Tampa, Fla.). DU-145 cells were grown in DMEM/Ham's F12 (Invitrogen, Carlsbad, Calif.) plus 10% newborn bovine serum (Hyclone, Logan, Utah). LNCaP cells were maintained in RPMI-1640 (Invitrogen) plus fetal bovine serum (Hyclone). Cell viabilities were determined using fluorescein diacetate (Sigma Chemical Co., St. Louis, Mo.) and a Universal RIII fluorescence microscope (Zeiss, Jena, Germany).
as §2

[4] = test system: LNCaP cells; experiment: Imaging flow cytometry, intracellular distribution of FITC-labeled peptides; settings: 250 nM, 4 hours
Experimental: (§5) FIG. 3A: DU-145 and LN-CaP cells were incubated with 250 nM peptides 351 or 353 for 4 hours, counterstained with 5 μM DRAQ 5, then fixed in paraformaldehyde and analyzed by imaging flow cytometry on an Amnis Imaging Cytometer. IDEAS software (Amnis) was used to generate and colorize the images. […] FIG. 3B: Live cell imaging of peptide 353 by DU-145 cells. 500 nM peptide 353 was incubated with DU-145 cells overnight (necessary for imaging purposes). Cells were washed with phenol red-free buffer, counter-stained with DRAQ5 at 10 μM, then examined under a Zeiss Axiovert 200 inverted phase contrast microscope with epifluorescence. The merged image confirms the presence of peptide 353 in nuclei. FIGS. 3C and D: DU-145 cells incubated with peptides 350 and 356, as described for FIG. 3B. Note the absence of FITC fluorescence in nuclei.
(§6) Since flow cytometry only gives data regarding total shifts in fluorescence of a population, imaging flow cytometry and live imaging microscopy studies were performed to determine if the NLS augmented nuclear accumulation of the peptides. Imaging flow cytometry was chosen to provide data on intracellular distribution of FITC-labeled peptides. Inverted epifluorescence microscopy was chosen to eliminate inadvertant artifacts that may arise from fixation, such as nuclear translocation. For these studies, the cell-permeable fluorochrome DRAQ5 was used because it readily enters and stains nuclei of viable cells. […] It was not retained in the plasma membrane (FIG. 3A). […] The translocation of peptides to nuclei was complete in the sense that FITC and DRAQ5 fluorescence colocalized in all viable cells, although cytoplasmic fluorescence was visible as well. The FITC distribution was somewhat punctuate in the cytoplasmic portion of cells, leading us to conclude that the peptide may be accumulating within endosomes. […]
as §2, with “Concentrations ranging from 0 to 3000 nM were assayed.” left out, “At least 10,000 events were acquired using CellQuest Pro software and an Apple Macintosh G4 dual coprocessor computer running OS X 10.3.9.” left out

[5] = test system: DU-145 cells; experiment: as above; settings: 250 nM, 4 hours
Experimental: as §5, §6
as §2, with “Concentrations ranging from 0 to 3000 nM were assayed.” left out, “At least 10,000 events were acquired using CellQuest Pro software and an Apple Macintosh G4 dual coprocessor computer running OS X 10.3.9.” left out

[6] = test system: LNCaP cells; experiment: Peptide uptake by live cells, flow cytometry (geometric MFI); settings: 3 μM peptide, 1 hr (FIG. 1B)
Experimental: as §3, §4, §2

[7] = test system: LNCaP cells; experiment: Live cell imaging of nuclear localization (epifluorescence microscopy); settings: 500 nM, 24 hrs incubation
Experimental: as §6
(§7) Live Cell Imaging Studies: A Zeiss Axiovert 200 inverted phase-contrast microscope outfitted with epifluorescence was used for live imaging studies. […] Images were acquired and analyzed using Zeiss Axiovision software.

[8] = test system: DU-145 cells; experiment: as above; settings: 500 nM, 24 hrs incubation
Experimental: as §6, §7

[9] = up to 300 nM, 1 hr, 37 ° C. (FIG. 1C), from approximately 40 without peptide
[10] = 300 nM peptide, 4 hr, 37° C., NaN3 0%
[11] = 300 nM peptide, 4 hr, 37° C., NaN3 0.1%
[12] = 300 nM peptide, 4 hr, 37° C., NaN3 1.0%
[13] = 300 nM peptide, 4 hr, NaN3 0.1%
[14] = 300 nM peptide, 4 hr, NaN3 1.0%

Molecule	cell death [1]	Geometric MFI [3, 10]	Geometric MFI [3, 11]	Geometric MFI [3, 12]	% Inhibition ([3]; 300 nM peptide, 4 hr, NaN3 0%)	% Inhibition [3, 13]	% Inhibition [3, 14]	geometric MFI compared among the peptides (FIG. 1A) [3]	effect of NaN3 on uptake ([3]; 4 hr, 37° C.)	average geometric MFI [3]	further results
C[C@H](NC(=O)[C@H](C)NC(=O)[C@H](Cc1ccccc1)NC(=O)[C@H](Cc1ccccc1)NC(=O)[C@@H](N)Cc1ccccc1)C(=O)NCC(=O)N[C@@H](CCCNC(=N)N)C(=O)N[C@@H](CCCCN)C(=O)N[C@@H](CCCNC(=N)N)C(=O)N[C@@H](CCCCN)C(=O)N[C@@H](CCCCN)C(=O)N[C@@H](CCCNC(=N)N)C(=O)N[C@H](C(=O)N[C@@H](CCCCNC(=O)c1ccc2c(c1)C(=O)OC21c2ccc(O)cc2Oc2cc(O)ccc21)C(=O)O)[C@@H](C)O [Peptide 361, FFFAAGRKRKKRT-FITC] (H-FFFAAGRKRKKRTK(5FAM)-OH)	significant cell death	–	–	–	–	–	–	–	–	–	viability at 1 h, 3 µM [2]: < 50%; Geometric MFI [3, 9]: ~100
C[C@H](NC(=O)[C@H](C)NC(=O)[C@H](CC(N)=O)NC(=O)[C@H](CC(N)=O)NC(=O)[C@@H](N)CC(N)=O)C(=O)NCC(=O)N[C@@H](CCCNC(=N)N)C(=O)N[C@@H](CCCCN)C(=O)N[C@@H](CCCNC(=N)N)C(=O)N[C@@H](CCCCN)C(=O)N[C@@H](CCCCN)C(=O)N[C@@H](CCCNC(=N)N)C(=O)N[C@H](C(=O)N[C@@H](CCCCNC(=O)c1ccc2c(c1)C(=O)OC21c2ccc(O)cc2Oc2cc(O)ccc21)C(=O)O)[C@@H](C)O [Peptide 362, NNNAAGRKRKKRT-FITC] (H-NNNAAGRKRKKRTK(5FAM)-OH)	not seen	–	–	–	–	–	–	–	–	–	viability at 1 h, 3 µM [2]: < 50%; Geometric MFI [3, 9]: ~100
EEE-FITC [Peptide 350]	–	25.6	26.4	29.7	0%	0%	0%	lowest values	no effect	–	–
EEEAA-FITC (not fully specified; carboxyfluorescein label; Synthetically produced Glu peptide (Peptide 351))	–	43.8	56.9	48.4	0%	0%	0%	lowest values	no effect	–	accumulation in the cells when the plasma membrane was excluded [4]: much less accumulation; nuclei positive for DRAQ5 and FITC colocalization [4]: ~10%; accumulation in the cells when the plasma membrane was excluded [5]: much less accumulation; nuclei positive for DRAQ5 and FITC colocalization [5]: ~10%
EEEAAGRKRKKRT-FITC (EEEAAGRKRKKRT-{FITC′}) [Peptide 353, glutamate peptide linked by alanine linker to Oct6 NLS]	not seen	151 and 151.4	155.7	114 and 114.4	0%	0%	–	significantly increased	–	486	Geometric MFI [6]: 1500-2000; uptake of carboxyfluorescein peptide 353 on coincubation ([3]; 300 nM 353 with 300 nM carboxydansyl peptide 365 or 366, 1 hr (FIG. 1D)): nearly unaltered uptake; Geometric MFI ([3]; 3 μM peptide, 1 hr (FIG. 1B)): 1500-2000; accumulation in the nuclei [7]: accumulated in the nuclei; accumulation in the nuclei [8]: accumulated in the nuclei
EEEAAGRKRKKRT-TATGATCTCCTCCGT-K-FITC (all peptide nucleic acid (PNA), 5' {P353}, 3' {Lys-FITC}) [Peptide 353-PNA]	–	–	–	–	–	–	–	–	–	–	MFI of the cells with increasing concentration ([3]; 0, 300, and 1000 nM, 18 hr (FIG. 4)): increased the MFI; MFI of small but highly fluorescent population of cells ([3]; 300 nM, 18 hr (FIG. 4)): greater than 10^3
EEEAAKKK-FITC (EEEAAKKK-{FITC′}) [Peptide 352]	–	58.6	61.8	47.4	0%	0%	19.1%	significantly increased	no effect	186	–
FFFAAGRKRKKRT-K-dansyl (FFFAAGRKRKKRTK-dansyl) [Peptide 365]	–	–	–	–	–	–	–	–	–	–	uptake of carboxydansyl peptide on coincubation with peptide 353 [3]: without concomitant uptake
GRKRKKRT-FITC (GRKRKKRT-{FITC′}) [Peptide 356]	–	417.6	293	181	0%	29.8%	–	not nearly as great as that of peptide 353	–	325	–
NNNAAGRKRKKRT-K-dansyl (NNNAAGRKRKKRTK-dansyl) [Peptide 366]	–	–	–	–	–	–	–	–	–	–	uptake of carboxydansyl peptide on coincubation with peptide 353 [3]: without concomitant uptake
